pKa in water and pH data for six compounds are collected here from patent publication US20190256994A1, “Electrochemical Deposition of Elements in Aqueous Media” (LumiShield Technologies Incorporated, priority 2016, published 2019).

The conditions of one series: acid of the ligand; cited from earlier work.
`O=S(=O)(O)C(F)(F)F` [Triflate (TfO), Triflate]: the pKa in water is reported as -3.43.
Regarding `O=S(=O)(NS(=O)(=O)C(F)(F)F)C(F)(F)F` [bis(trifluoromethane) sulfonamide(Tf2N), bis(trifluoromethane) sulfonamide], the pKa in water result is on record as “Too negative to measure”.
For the compound “Methanesulfonate [Methanesulfonate (MSO)]”, the pKa in water is reported as -1.61.
With “Trifluoroacetate [Trifluoroacetate (TFA)]”, the pKa in water is 0.52.
Take “p-Toluenesulfonate [p-Toluenesulfonate (p-TSA)]”: the pKa in water was -2.14.

Another series is classed as physicochemical. Conditions: 1 M aluminum aqueous solution.
`[Cl][Al]([Cl])[Cl]` [AlCl3, Aluminum chloride]: the pH was determined as 2.04.
